Source: ChEMBL document CHEMBL1201862, “PubChem BioAssay data set” (2004)
Activity calls are given as the source filed them.

Key:
[1] = inhibitors of intracellular T. cruzi replication, confirmation, NIH3T3 host cells, beta-gal luminescence (AID 2044); assay type: functional, cell-based;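 further: intracellular parasites grown in NIH/3T3 mouse fibroblasts as host cells; luminescent beta-galactosidase reporter signal from transgenic T. cruzi replicating inside host cells; inhibitors lower the luminescence signal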
[2] = cytotoxicity toward NIH3T3 fibroblasts, dose response, counter-screen, cell-based, ATP luminescence, mouse fibroblasts (AID 2010); assay type: functional;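 further: cells exposed to compound for about 90 hours before reading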
[3] = tested on: Streptococcus; assay: Group A Streptococcus viability loss, dose response, counter-screen for streptokinase expression inhibitor project, luminescence, BacTiterGlo (AID 1915); assay type: functional, organism-based;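 further: potency for reduction of bacterial viability or growth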
[4] = molecular target: T1, Streptokinase A (Streptococcus pyogenes serotype M1, UniProt P10520); assay: S. pyogenes streptokinase expression inhibitors, potency, dose response, plasminogen activation absorbance, OD405 (AID 1914); assay type: functional, Streptococcus pyogenes M1 GAS;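 further: secreted streptokinase activity via plasminogen activation per viability signal from cell pellet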
T1 sequence (P10520 whole entry): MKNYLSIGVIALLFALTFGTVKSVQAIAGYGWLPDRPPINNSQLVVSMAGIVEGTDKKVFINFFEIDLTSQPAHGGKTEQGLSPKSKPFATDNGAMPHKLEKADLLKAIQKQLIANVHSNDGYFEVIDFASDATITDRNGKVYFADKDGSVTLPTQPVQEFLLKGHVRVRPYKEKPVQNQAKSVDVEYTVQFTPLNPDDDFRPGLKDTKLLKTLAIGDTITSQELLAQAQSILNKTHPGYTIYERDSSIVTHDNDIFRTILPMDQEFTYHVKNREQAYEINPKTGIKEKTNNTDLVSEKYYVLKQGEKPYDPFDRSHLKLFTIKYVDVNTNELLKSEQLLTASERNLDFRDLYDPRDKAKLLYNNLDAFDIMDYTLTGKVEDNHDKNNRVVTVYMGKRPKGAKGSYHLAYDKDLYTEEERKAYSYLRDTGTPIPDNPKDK

[5] = tested on: Streptococcus sp. 'group A'; assay: growth inhibition of control SK(-) GAS strain, dose response, counter-screen for streptokinase expression inhibitor project, luminescence, kanamycin, BacTiterGlo, confirmation (AID 1900); assay type: functional, organism-based
[6] = molecular target: T2, Corticotropin-releasing factor receptor 2/Corticotropin-releasing factor-binding protein (Homo sapiens, UniProt P24387+Q13324); assay: activators of CRF receptor 2 with binding protein – uHTS hits, confirmation (AID 602473); assay type: functional; conditions: read-out: EC50_Mean
T2 sequence (Q13324 whole entry): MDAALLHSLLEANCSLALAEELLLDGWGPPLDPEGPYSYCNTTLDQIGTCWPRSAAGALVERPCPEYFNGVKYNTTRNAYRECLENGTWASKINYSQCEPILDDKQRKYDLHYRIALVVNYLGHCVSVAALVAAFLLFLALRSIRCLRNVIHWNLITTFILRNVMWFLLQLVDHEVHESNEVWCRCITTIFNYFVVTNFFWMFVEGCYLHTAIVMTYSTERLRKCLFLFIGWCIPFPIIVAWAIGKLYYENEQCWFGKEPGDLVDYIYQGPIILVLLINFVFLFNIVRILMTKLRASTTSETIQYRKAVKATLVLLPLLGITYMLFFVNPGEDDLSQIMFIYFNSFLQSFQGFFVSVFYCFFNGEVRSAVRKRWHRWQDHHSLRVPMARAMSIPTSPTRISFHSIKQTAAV
T2 sequence (P24387 whole entry): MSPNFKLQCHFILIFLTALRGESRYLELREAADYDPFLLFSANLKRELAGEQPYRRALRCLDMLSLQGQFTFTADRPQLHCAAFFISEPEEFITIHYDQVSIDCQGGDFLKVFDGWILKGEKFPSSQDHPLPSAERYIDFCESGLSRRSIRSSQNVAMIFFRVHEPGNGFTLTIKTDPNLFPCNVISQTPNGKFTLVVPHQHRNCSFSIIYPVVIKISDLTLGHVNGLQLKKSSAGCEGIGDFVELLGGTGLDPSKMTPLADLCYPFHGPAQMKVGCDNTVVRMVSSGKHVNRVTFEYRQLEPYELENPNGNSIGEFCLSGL

[7] = molecular target: Cytochrome P450 2C19 (Homo sapiens, UniProt P33261); assay: Cytochrome panel assay with activity outcomes. Panel member name: p450-cyp2c19 Compounds with AC50 equal or less than 10 uM are considered active; assay type: functional
Sequence of Cytochrome P450 2C19 (P33261 whole entry): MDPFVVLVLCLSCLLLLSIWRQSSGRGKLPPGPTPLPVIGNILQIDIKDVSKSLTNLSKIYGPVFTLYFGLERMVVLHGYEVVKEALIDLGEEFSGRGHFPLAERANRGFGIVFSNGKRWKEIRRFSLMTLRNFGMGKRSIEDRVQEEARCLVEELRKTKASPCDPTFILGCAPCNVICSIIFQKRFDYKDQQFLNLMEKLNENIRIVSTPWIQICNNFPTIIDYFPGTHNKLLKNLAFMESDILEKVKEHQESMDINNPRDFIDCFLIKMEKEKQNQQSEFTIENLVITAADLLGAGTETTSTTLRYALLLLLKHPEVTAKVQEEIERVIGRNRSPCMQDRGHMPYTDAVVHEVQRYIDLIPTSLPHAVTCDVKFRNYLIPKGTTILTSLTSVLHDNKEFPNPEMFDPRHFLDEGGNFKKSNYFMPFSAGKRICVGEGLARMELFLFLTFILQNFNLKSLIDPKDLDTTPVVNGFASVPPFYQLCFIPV

[8] = inhibitors of firefly luciferase expression or activity, dose response, H4 neuroglioma cells, luminescence (AID 1990); assay type: functional, cell-based
[9] = inhibitors of SNCA 5'UTR-driven reporter translation, confirmation, H4 neuroglioma cells, luminescence (AID 1988); assay type: functional, cell-based
[10] = Luminescence Cell-Based Dose Response HTS to Identify Inhibitors of 5'UTR Stem-Loop Driven Prion Protein mRNA Translation in H4 Neuroglioblastoma Cells. [Related pubchem assays: 1827 (Project Summary), 1813 (Primary HTS)]; assay type: functional

In the case of `CN1CCN(C(CNC(=O)c2ccc(Br)o2)c2ccc(F)cc2)CC1` (stereo not drawn), the EC50 [1] is reported as 0.865 µM (active) and the EC50 [2] is reported as > 60 µM (not active).

For `Cc1ccccc1OCCCc1c(C)n[nH]c1C`, the EC50 [3] was > 150 µM (not active), the EC50 [4] was > 150 µM (not active) and the EC50 [5] was 19.9 µM (active).

In the case of `Cn1c(=O)n(C)c2cc(NS(=O)(=O)c3ccccc3[N+](=O)[O-])ccc21`, the EC50 [3] is reported as > 150 µM (not active), the EC50 [4] is reported as > 150 µM (not active) and the EC50 [5] is reported as > 150 µM (not active).

In the case of `O=C(CSc1nnc(-c2c[nH]c3ccccc23)o1)N(Cc1ccccc1)c1ccc(F)cc1`, the EC50 [1] is reported as 1.58 µM (active) and the EC50 [2] is reported as > 60 µM (not active).

With `N#C/C(=C/c1ccc(N2CCCCCC2)o1)c1cccc(F)c1` the EC50 [1] was 2.78 µM (active) and the EC50 [2] was > 60 µM (not active).

With `CCOC(=O)C1=NN(C(=O)c2ccc(OC)cc2)C(O)(c2ccc(Cl)cc2)C1` (stereo not drawn) the EC50 [3] was 15.7 µM (active), the EC50 [4] was > 150 µM (not active) and the EC50 [5] was 7.85 µM (active).

With `O=C(Nc1ccncc1)c1cccc(S(=O)(=O)N2CCN(c3ccc(F)cc3)CC2)c1` the EC50 [1] was 1.14 µM (active) and the EC50 [2] was > 30 µM (not active).

For `CCOC(=O)C1CCCN(Cc2ccc(O)c(OC)c2)C1` (stereo not drawn), the EC50 [1] was 0.183 µM (active) and the EC50 [2] was > 60 µM (not active).

With `O=C(COC(=O)CSc1cc(Cl)ccc1Cl)NCc1ccc2c(c1)OCO2` the EC50 [6] was > 53 µM (inactive).

For `CSc1nnnc2ccccc12`, the AC50 [7] was “inconclusive”.

In the case of `Cc1ccc(C)c(NC(=O)c2cccc(Oc3ccc([N+](=O)[O-])cc3Cl)c2)c1`, the EC50 [1] is reported as 1.45 µM (active) and the EC50 [2] is reported as > 30 µM (not active).

In the case of `CCN(CC)C(=O)Cn1c(=O)c2ccccc2n2c(=S)sc(-c3cccc(C)c3)c12`, the EC50 [6] is reported as > 53 µM (inactive).

In the case of `COc1ccc(Cc2noc(CN3CCN(C4CCc5ccccc5C4)CC3)n2)cc1OC` (stereo not drawn), the EC50 [1] is reported as 1.23 µM (active) and the EC50 [2] is reported as > 60 µM (not active).

In the case of `CCN(CC(=O)Nc1sc2c(c1C#N)CCCC2)Cc1nc(O)c2ccccc2n1`, the EC50 [8] is reported as 22.4 µM (active), the EC50 [9] is reported as > 120 µM (not active) and the EC50 [10] is reported as > 120 µM (not active).

For `CC(C)=CCC12Oc3cc(O)ccc3C1(O)Oc1cc(O)c([C@H]3C=C(C)CC(c4ccc(O)cc4O)[C@H]3C(=O)c3ccc(O)cc3O)c(O)c1C2=O` (stereo partly drawn), the EC50 [3] was 1.64 µM (active) and the EC50 [5] was 1.15 µM (active).

With `c1ccc(C(c2ccccc2)N2CCN(c3ccc4ccccc4n3)CC2)cc1` the EC50 [8] was 16.8 µM (active), the EC50 [9] was > 120 µM (not active) and the EC50 [10] was > 120 µM (not active).

With `NS(=O)(=O)c1ccc(NC(S)=Nc2ccn(Cc3cccc4ccccc34)n2)cc1` the EC50 [8] was 15.6 µM (active), the EC50 [9] was > 120 µM (not active) and the EC50 [10] was > 120 µM (not active).

With `O=C(Cc1coc2cc3c(cc12)CCC3)OCC(=O)N1CCCC1=O` the EC50 [8] was > 60 µM (not active), the EC50 [9] was 30.1 µM (active) and the EC50 [10] was > 60 µM (not active).

With `O=C(C[C@H]1C[C@H](C(=O)N2CCCCC2)[C@@]2(CCc3ccccc3)c3[nH]c4ccc(Cl)cc4c3CCN2C1=O)NCCN1CCOCC1` the EC50 [6] was > 53 µM (inactive).

In the case of `O=C(Cn1nnc(-c2ccccc2)n1)N/N=C/c1cc([N+](=O)[O-])ccc1O`, the EC50 [3] is reported as 0.55 µM (active) and the EC50 [5] is reported as 0.421 µM (active).

For `CCCN(Cc1ccco1)S(=O)(=O)c1ccc(OC)c(OC)c1`, the EC50 [3] was > 150 µM (not active), the EC50 [4] was > 150 µM (not active) and the EC50 [5] was > 150 µM (not active).

With `CC(/C=C/C=C/c1ccccc1)=N/NC(=O)c1ccc2c(c1)OCCO2` the EC50 [3] was > 150 µM (not active), the EC50 [4] was > 150 µM (not active) and the EC50 [5] was > 150 µM (not active).

For `O=[N+]([O-])c1cccc(-c2ccc(/C=N/NC(=S)Nc3ccccc3)o2)c1`, the EC50 [1] was 1.99 µM (active).

With `Oc1ccc(/C=N/Nc2ccc3ccccc3c2)c(O)c1` the EC50 [3] was 31.9 µM (active), the EC50 [4] was > 150 µM (not active) and the EC50 [5] was 6.27 µM (active).
